Experimental data reported in ChEMBL document CHEMBL3882725, “Indazole derivatives as JNK inhibitors and compositions and methods related thereto” (2002).

Molecular target: Mitogen-activated protein kinase 9 (Homo sapiens, UniProt P45984)
Assay: Inhibition of His6-tagged JNK2 (unknown origin) assessed as reduction in c-Jun phosphorylation using GST-c-Jun (1 to 79 residues) and [gamma32P]ATP incubated for 1 hr by scintillation counting assay

Sequence of Mitogen-activated protein kinase 9 (P45984 whole entry, the tested form may be a part): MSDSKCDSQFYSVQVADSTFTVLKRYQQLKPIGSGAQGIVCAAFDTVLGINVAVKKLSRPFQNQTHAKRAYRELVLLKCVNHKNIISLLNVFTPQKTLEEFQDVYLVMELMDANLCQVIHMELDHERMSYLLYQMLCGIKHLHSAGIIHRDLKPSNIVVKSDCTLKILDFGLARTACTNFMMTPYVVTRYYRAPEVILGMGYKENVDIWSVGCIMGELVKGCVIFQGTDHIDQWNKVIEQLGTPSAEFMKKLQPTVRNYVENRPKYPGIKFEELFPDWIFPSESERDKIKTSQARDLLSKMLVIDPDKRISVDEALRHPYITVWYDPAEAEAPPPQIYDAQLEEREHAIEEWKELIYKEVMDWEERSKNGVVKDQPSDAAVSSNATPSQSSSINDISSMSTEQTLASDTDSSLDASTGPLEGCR

Compound | IC50
O=C(CC1CCCCC1)Nc1cccc(-c2n[nH]c3ccc(-c4nc[nH]n4)cc23)c1 | 0.5 to 10 µM
O=C(Nc1ccncc1)c1cccc(-c2n[nH]c3ccc(-c4nc[nH]n4)cc23)c1 | 0.5 to 10 µM
CN(C)Cc1nc(-c2ccc3[nH]nc(-c4cccc(C(=O)NC(C)(C)C)c4)c3c2)n[nH]1 | 0.5 to 10 µM
O=C(NCCc1ccccc1)c1cccc(-c2n[nH]c3ccc(-c4nc[nH]n4)cc23)c1 | 0.5 to 10 µM
c1cncc(COc2cccc(-c3n[nH]c4ccc(-c5nc[nH]n5)cc34)c2)c1 | 1 to 10 µM
CN(C)Cc1nc(-c2ccc3[nH]nc(-c4cccc(NC(=O)[C@H](O)c5ccccc5)c4)c3c2)n[nH]1 | 0.5 to 10 µM
O=C(NC1CCN(Cc2ccccc2)CC1)c1cccc(-c2n[nH]c3ccc(-c4nc[nH]n4)cc23)c1 | 0.5 to 10 µM
CN(C)Cc1nc(-c2ccc3[nH]nc(-c4cccc(C(=O)N[C@@H]5CCc6ccccc65)c4)c3c2)n[nH]1 | 0.5 to 10 µM
O=C(NCCN1CCOCC1)c1cccc(-c2n[nH]c3ccc(-c4nc[nH]n4)cc23)c1 | 0.5 to 10 µM
NC(=O)c1ccc2[nH]nc(-c3cccc(NC(=O)c4cccc(O)c4)c3)c2c1 | 1 to 10 µM
NC(=O)c1ccc2[nH]nc(-c3ccc4c(c3)OCCO4)c2c1 | 1 to 10 µM
NC(=O)c1ccc2[nH]nc(-c3cccc(OCCN4CCCCC4)c3)c2c1 | 1 to 10 µM
O=C(Nc1cccc2c1CCCC2)c1cccc(-c2n[nH]c3ccc(-c4nc[nH]n4)cc23)c1 | 0.5 to 10 µM
O=C(O)c1cccc(-c2n[nH]c3ccc(-c4nc[nH]n4)cc23)c1 | 1 to 10 µM
c1nc(-c2ccc3[nH]nc(-c4ccc5c(c4)OCCO5)c3c2)n[nH]1 | 1 to 10 µM
O=C(Nc1cccc(-c2n[nH]c3ccc(-c4nc[nH]n4)cc23)c1)c1ccc(Cl)nc1 | 1 to 10 µM
O=C(NCCC1CCN(Cc2ccccc2)CC1)c1cccc(-c2n[nH]c3ccc(-c4nc[nH]n4)cc23)c1 | 0.5 to 10 µM
CC(C(=O)Nc1cccc(-c2n[nH]c3ccc(C(N)=O)cc23)c1)c1ccccc1 (stereo not given) | 1 to 10 µM
O=C(Nc1cccc(-c2n[nH]c3ccc(-c4nc[nH]n4)cc23)c1)[C@@H](O)c1ccccc1 | 0.5 to 10 µM
O=C(Nc1cccc(-c2n[nH]c3ccc(-c4nc[nH]n4)cc23)c1)C1CCCC1 | 1 to 10 µM
NC(=O)c1ccc2[nH]nc(-c3cccc(NC(=O)Cc4ccc(C(F)(F)F)cc4)c3)c2c1 | 1 to 10 µM
NC(=O)c1ccc2[nH]nc(-c3cccc(NC(=O)Cc4ccccc4)c3)c2c1 | 0.5 to 10 µM
CN(C)Cc1n[nH]c(-c2ccc3[nH]nc(-c4cccc(C(=O)NC5CC5)c4)c3c2)n1 | 0.5 to 10 µM
CN(C)CCc1nc(-c2ccc3[nH]nc(-c4ccc(F)cc4)c3c2)n[nH]1 | 1 to 10 µM

Compound | IC50
O=C(NC1CCC1)c1cccc(-c2n[nH]c3ccc(-c4nc[nH]n4)cc23)c1 | 0.5 to 10 µM
CN(C)c1ccc(CC(=O)Nc2cccc(-c3n[nH]c4ccc(C(N)=O)cc34)c2)cc1 | 1 to 10 µM
Fc1ccc(-c2n[nH]c3ccc(-c4n[nH]c(CN5CCCCC5)n4)cc23)cc1 | 1 to 10 µM
CN(C)Cc1n[nH]c(-c2ccc3[nH]nc(-c4cccc(C(=O)NC5CCC5)c4)c3c2)n1 | 0.5 to 10 µM
CN(C)Cc1n[nH]c(-c2ccc3[nH]nc(-c4cccc(C(=O)NCCN5CCCCC5)c4)c3c2)n1 | 0.5 to 10 µM
O=C(Nc1ccc(-c2n[nH]c3ccc(-c4nc[nH]n4)cc23)cc1)c1cccnc1 | 1 to 10 µM
CCN(CC)Cc1nc(-c2ccc3[nH]nc(-c4ccc(F)cc4)c3c2)n[nH]1 | 1 to 10 µM
CN(C)CC(=O)Nc1ccc(-c2n[nH]c3ccc(-c4nc[nH]n4)cc23)cc1 | 1 to 10 µM
O=C(Nc1cccc(-c2n[nH]c3ccc(-c4nc[nH]n4)cc23)c1)c1ccccn1 | 0.5 to 10 µM
NC(=O)c1ccc2[nH]nc(-c3cccc(NC(=O)CCc4ccc(F)cc4)c3)c2c1 | 1 to 10 µM
CCCCC(=O)Nc1cccc(-c2n[nH]c3ccc(-c4nc[nH]n4)cc23)c1 | 0.5 to 10 µM
NC(=O)c1ccc2[nH]nc(-c3cccc(NC(=O)Cc4ccc(Cl)cc4Cl)c3)c2c1 | 1 to 10 µM
CN(C)Cc1nc(-c2ccc3[nH]nc(-c4cccc(C(=O)NCc5ccc(F)cc5)c4)c3c2)n[nH]1 | 0.5 to 10 µM
O=c1[nH]c(-c2ccc3[nH]nc(-c4ccc(F)cc4)c3c2)no1 | 0.5 to 10 µM
COCC(=O)Nc1ccc(-c2n[nH]c3ccc(-c4nc[nH]n4)cc23)cc1 | 1 to 10 µM
COc1ccc(CC(=O)Nc2cccc(-c3n[nH]c4ccc(C(N)=O)cc34)c2)cc1 | 0.5 to 10 µM
O=C(N[C@H]1C[C@@H]1c1ccccc1)c1cccc(-c2n[nH]c3ccc(-c4nc[nH]n4)cc23)c1 | 0.5 to 10 µM
CN(C)Cc1nc(-c2ccc3[nH]nc(-c4ccc5c(c4)OCO5)c3c2)n[nH]1 | 0.5 to 10 µM
NC(=O)c1ccc2[nH]nc(-c3cccc(NC(=O)Cc4ccc(F)cc4)c3)c2c1 | 0.5 to 10 µM
O=C(Nc1cccc(-c2n[nH]c3ccc(-c4nc[nH]n4)cc23)c1)C(=O)c1ccco1 | 1 to 10 µM
O=C(NC1CCCC1)c1cccc(-c2n[nH]c3ccc(-c4nc[nH]n4)cc23)c1 | 0.5 to 10 µM
NC(=O)c1ccc2[nH]nc(-c3cccc(NC(=O)C4CC4)c3)c2c1 | 1 to 10 µM
O=C(Nc1ccc(-c2n[nH]c3ccc(-c4nn[nH]n4)cc23)cc1)c1cccnc1 | 0.5 to 10 µM
NC(=O)c1ccc2[nH]nc(-c3cccc(NC(=O)Cc4ccncc4)c3)c2c1 | 0.5 to 10 µM

Compound | IC50
COCCOc1cccc(-c2n[nH]c3ccc(-c4nc[nH]n4)cc23)c1 | 1 to 10 µM
NC(=O)c1ccc2[nH]nc(-c3cccc(NC(=O)Cc4ccc(F)c(F)c4)c3)c2c1 | 1 to 10 µM
CNCc1nc(-c2ccc3[nH]nc(-c4ccc(F)cc4)c3c2)n[nH]1 | 0.5 to 10 µM
NC(=O)c1ccc2[nH]nc(-c3cccc(NC(=O)Cc4ccccn4)c3)c2c1 | 1 to 10 µM
Fc1ccc(-c2n[nH]c3ccc(-c4nnc(CN5CCOCC5)o4)cc23)cc1 | 1 to 10 µM
O=C(Nc1ccccc1)c1cccc(-c2n[nH]c3ccc(-c4nc[nH]n4)cc23)c1 | 0.5 to 10 µM
COc1ccc(-c2n[nH]c3ccc(-c4n[nH]c(CN(C)C)n4)cc23)cc1 | 0.5 to 10 µM
NC(=O)c1ccc2[nH]nc(-c3cccc(NC(=O)Cc4ccccc4F)c3)c2c1 | 0.5 to 10 µM
O=C(Nc1cccc(-c2n[nH]c3ccc(-c4nc[nH]n4)cc23)c1)C1CC1 | 1 to 10 µM
O=C(Nc1cccc(-c2n[nH]c3ccc(-c4nc[nH]n4)cc23)c1)c1ccoc1 | 0.5 to 10 µM
O=C(Nc1ccc(F)cc1)c1cccc(-c2n[nH]c3ccc(-c4nc[nH]n4)cc23)c1 | 0.5 to 10 µM
O=C(Nc1cccc(-c2n[nH]c3ccc(-c4nc[nH]n4)cc23)c1)C(=O)c1c[nH]c2ccccc12 | 1 to 10 µM
COc1ccc2cc(-c3n[nH]c4ccc(C(N)=O)cc34)ccc2c1 | 1 to 10 µM
CN(C)Cc1n[nH]c(-c2ccc3[nH]nc(-c4cccc(C(=O)NC5Cc6ccccc6C5)c4)c3c2)n1 | 0.5 to 10 µM
CN(C)Cc1n[nH]c(-c2ccc3[nH]nc(-c4cc5ccccc5o4)c3c2)n1 | 1 to 10 µM
O=C(NC1CCCCC1)c1cccc(-c2n[nH]c3ccc(-c4nc[nH]n4)cc23)c1 | 0.5 to 10 µM
NC(=O)c1ccc2[nH]nc(-c3cccc(NC(=O)Cc4ccc(F)cc4Cl)c3)c2c1 | 1 to 10 µM
O=C(Nc1cccc(-c2n[nH]c3ccc(-c4nc[nH]n4)cc23)c1)C(=O)c1ccccc1 | 1 to 10 µM
O=C(Nc1cccnc1)c1cccc(-c2n[nH]c3ccc(-c4nc[nH]n4)cc23)c1 | 0.5 to 10 µM
CN(C)Cc1n[nH]c(-c2ccc3[nH]nc(-c4cccc(C(=O)Nc5ccccc5)c4)c3c2)n1 | 0.5 to 10 µM
CC(c1nc(-c2ccc3[nH]nc(-c4ccc(F)cc4)c3c2)n[nH]1)N(C)C (stereo not given) | 0.5 to 10 µM
Fc1ccc(-c2n[nH]c3ccc(-c4n[nH]c(CN5CCOCC5)n4)cc23)cc1 | 1 to 10 µM
NC(=O)c1ccc2[nH]nc(-c3cccc(NC(=O)Cc4ccc(Cl)cc4)c3)c2c1 | 1 to 10 µM
O=C(NC1CC1)c1cccc(-c2n[nH]c3ccc(-c4nc[nH]n4)cc23)c1 | 0.5 to 10 µM

Compound | IC50
Cc1ncc(CC(=O)Nc2cccc(-c3n[nH]c4ccc(C(N)=O)cc34)c2)s1 | 1 to 10 µM
CN(C)Cc1n[nH]c(-c2ccc3[nH]nc(-c4cccc(C(=O)Nc5ccc(F)cc5)c4)c3c2)n1 | 0.5 to 10 µM
O=C(Cc1ccc(F)cc1)Nc1cccc(-c2n[nH]c3ccc(-c4nc[nH]n4)cc23)c1 | 0.5 to 10 µM
COCCNC(=O)c1cccc(-c2n[nH]c3ccc(-c4nc[nH]n4)cc23)c1 | 0.5 to 10 µM
Fc1ccc(-c2n[nH]c3ccc(-c4n[nH]c(C5CCCN5)n4)cc23)cc1 (stereo not given) | 0.5 to 10 µM
O=C(O)C(=O)Nc1cccc(-c2n[nH]c3ccc(-c4nc[nH]n4)cc23)c1 | 0.5 to 10 µM
CS(=O)(=O)Nc1ccc(-c2n[nH]c3ccc(-c4nc[nH]n4)cc23)cc1 | 1 to 10 µM
CN(C)Cc1nc(-c2ccc3[nH]nc(-c4cccc(NC(=O)CC(C)(C)C)c4)c3c2)n[nH]1 | 0.5 to 10 µM
O=C(Nc1cccc(-c2n[nH]c3ccc(-c4nc[nH]n4)cc23)c1)c1cc2ccccc2s1 | 1 to 10 µM
CN(C)Cc1nc(-c2ccc3[nH]nc(-c4cccc(NC(=O)c5cccnc5)c4)c3c2)n[nH]1 | 0.5 to 10 µM
O=C(Nc1cccc(-c2n[nH]c3ccc(-c4nc[nH]n4)cc23)c1)c1ccno1 | 0.5 to 10 µM
CC(C)CC(=O)Nc1cccc(-c2n[nH]c3ccc(-c4n[nH]c(CN(C)C)n4)cc23)c1 | 0.5 to 10 µM
O=C(NC1CCN(Cc2ccccc2)C1)c1cccc(-c2n[nH]c3ccc(-c4nc[nH]n4)cc23)c1 (stereo not given) | 0.5 to 10 µM
O=C(Nc1cccc(-c2n[nH]c3ccc(-c4nc[nH]n4)cc23)c1)[C@H](O)c1ccccc1 | 0.5 to 10 µM
NC(=O)c1ccc2[nH]nc(-c3cccc(NC(=O)CCc4ccccc4)c3)c2c1 | 1 to 10 µM
NC(=O)c1ccc2[nH]nc(-c3cccc(NC(=O)Cc4ccsc4)c3)c2c1 | 1 to 10 µM
NC(=O)c1ccc2[nH]nc(-c3cccc(C(=O)NCCN4CCCCC4)c3)c2c1 | 1 to 10 µM
NC(=O)c1ccc2[nH]nc(-c3cccc(NC(=O)c4cccs4)c3)c2c1 | 1 to 10 µM
O=C(Nc1cccc(-c2n[nH]c3ccc(-c4nc[nH]n4)cc23)c1)C(O)c1ccccc1 (stereo not given) | 0.5 to 10 µM
O=C(NCCN1CCCCC1)c1cccc(-c2n[nH]c3ccc(-c4nc[nH]n4)cc23)c1 | 0.5 to 10 µM
NC(=O)c1ccc2[nH]nc(-c3cccc(NC(=O)C4CCOC4)c3)c2c1 (stereo not given) | 0.5 to 10 µM
O=C(CCc1ccccc1)Nc1cccc(-c2n[nH]c3ccc(-c4nc[nH]n4)cc23)c1 | 0.5 to 10 µM
CC(C)NC(=O)c1cccc(-c2n[nH]c3ccc(-c4nc[nH]n4)cc23)c1 | 0.5 to 10 µM
